Eight molecules from ChEMBL document CHEMBL6078640, “Trivalent oleanolic acid-glucose conjugates: Synthesis and efficacy against Influenza A virus” (Eur J Med Chem, 2024) can be followed below.

Series [1] concerns MDCK. In words: Cytotoxicity against dog MDCK cells assessed as reduction in cell viability at 100 uM incubated for 40 hrs by celltiter-glo assay. It counts as toxicity, cell-based, Canis lupus familiaris.
Series [2] concerns Influenza A virus. In words: Antiviral activity against Influenza A virus H1N1 infected in MDCK cells assessed as inhibition of viral growth at 100 uM relative to control. It is filed as functional.
Series [3] deals with Influenza A virus. In words: Antiviral activity against influenza A virus A/WSN/33(H1N1) infected in MDCK cells assessed as inhibition of viral-induced cytopathic effect pretreated with cells followed by viral infection and measured after 40 hrs by fluorescence based microplate reader analysis. It counts as functional, organism-based.
Series [4] is described as follows: Cytotoxicity against dog MDCK cells assessed as reduction in cell viability incubated for 40 hrs by celltiter-glo assay. It counts as toxicity, cell-based, Canis lupus familiaris.
Series [5] can be described thus: Selectivity index, ratio of CC50 for dog MDCK cells to IC50 for influenza A virus A/WSN/33(H1N1) infected in MDCK cells. It is filed as toxicity, cell-based. Particulars: read-out: Selectivity Index.
The subject of series [6] is Influenza A virus. In words: Antiviral activity against Influenza A virus A/WSN/33(H1N1) infected in female BALB/c kunming mouse assessed as reduction in lung index at 12.5 mg/kg/day, administered intranasally once per day for 7 days starting from 24 hrs post-viral infection and measured daily. It counts as functional. The conditions noted are these: time 7 day.
In series [7] the test system is Influenza A virus. Briefly: Antiviral activity against Influenza A virus A/WSN/33(H1N1) infected in female BALB/c kunming mouse assessed as reduction in severe pneumonia at 10 mg/kg/day, administered intranasally once per day for 7 days starting from 24 hrs post-viral infection and measured daily. It is filed as functional, organism-based. The conditions noted are these: time 7.0 day.

The subject of series [8] is Influenza A virus. Briefly: Antiviral activity against Influenza A virus A/WSN/33(H1N1) infected in female BALB/c kunming mouse assessed as reduction in immune cell infiltration at 10 mg/kg/day, administered intranasally once per day for 7 days starting from 24 hrs post-viral infection and measured daily. It counts as functional, organism-based. Particulars: time 7.0 day.

Active and inactive are the calls of the source. No cut-off for these calls is given here. A value given as a limit tells only on which side of the number the result lay.

For `CC1(C)CC[C@]2(C(=O)NCc3cn([C@@H]4O[C@H](CO)[C@@H](O)[C@H](O)[C@H]4O)nn3)CC[C@]3(C)C(=CC[C@@H]4[C@@]5(C)CC[C@H](O)C(C)(C)[C@@H]5CC[C@]43C)[C@@H]2C1`, the Activity result in series [1] is given as “Non-toxic”. Besides, the inhibition at 100 µM in series [2] was > 75%. In addition, in series [3], the 50% inhibitory concentration (IC50) was found to be 1.36 µM. Further, the cytotoxic concentration (CC50) at 40 h in series [4] was > 100 µM. In series [5], the selectivity ratio was > 73.5. For the same molecule, the Activity_index in series [6] amounted to 1.4. The outcome in series [7] and in series [8] was Active.
Consider `CC(=O)OC[C@H]1O[C@@H](n2cc(CNC(=O)[C@]34CCC(C)(C)C[C@H]3C3=CC[C@@H]5[C@@]6(C)CC[C@H](OC(=O)NCCCc7cn(Cc8cc(Cn9cc(CCCNC(=O)O[C@H]%10CC[C@]%11(C)[C@H]%12CC=C%13[C@@H]%14CC(C)(C)CC[C@]%14(C(=O)NCc%14cn([C@@H]%15O[C@H](COC(C)=O)[C@@H](OC(C)=O)[C@H](OC(C)=O)[C@H]%15OC(C)=O)nn%14)CC[C@@]%13(C)[C@]%12(C)CC[C@H]%11C%10(C)C)nn9)cc(Cn9cc(CCCNC(=O)O[C@H]%10CC[C@]%11(C)[C@H]%12CC=C%13[C@@H]%14CC(C)(C)CC[C@]%14(C(=O)NCc%14cn([C@@H]%15O[C@H](COC(C)=O)[C@@H](OC(C)=O)[C@H](OC(C)=O)[C@H]%15OC(C)=O)nn%14)CC[C@@]%13(C)[C@]%12(C)CC[C@H]%11C%10(C)C)nn9)c8)nn7)C(C)(C)[C@@H]6CC[C@@]5(C)[C@]3(C)CC4)nn2)[C@H](OC(C)=O)[C@@H](OC(C)=O)[C@@H]1OC(C)=O`, for which the Activity result in series [1] is “Non-toxic”. In addition, the inhibition at 100 µM in series [2] was > 75%. Besides, the IC50 in series [3] stood at 6.39 µM. For the same molecule, the CC50 at 40 h in series [4] was > 100 µM. Further, the selectivity ratio in series [5] was > 15.6.
On to `CC(=O)OC[C@H]1O[C@@H](n2cc(CNC(=O)[C@]34CCC(C)(C)C[C@H]3C3=CC[C@@H]5[C@@]6(C)CC[C@H](OC(=O)NCc7cn(CC(CO)(Cn8cc(CNC(=O)O[C@H]9CC[C@]%10(C)[C@H]%11CC=C%12[C@@H]%13CC(C)(C)CC[C@]%13(C(=O)NCc%13cn([C@@H]%14O[C@H](COC(C)=O)[C@@H](OC(C)=O)[C@H](OC(C)=O)[C@H]%14OC(C)=O)nn%13)CC[C@@]%12(C)[C@]%11(C)CC[C@H]%10C9(C)C)nn8)Cn8cc(CNC(=O)O[C@H]9CC[C@]%10(C)[C@H]%11CC=C%12[C@@H]%13CC(C)(C)CC[C@]%13(C(=O)NCc%13cn([C@@H]%14O[C@H](COC(C)=O)[C@@H](OC(C)=O)[C@H](OC(C)=O)[C@H]%14OC(C)=O)nn%13)CC[C@@]%12(C)[C@]%11(C)CC[C@H]%10C9(C)C)nn8)nn7)C(C)(C)[C@@H]6CC[C@@]5(C)[C@]3(C)CC4)nn2)[C@H](OC(C)=O)[C@@H](OC(C)=O)[C@@H]1OC(C)=O`, for which the Activity entry in series [1] was “Non-toxic”. The inhibition at 100 µM in series [2] is > 75%. The IC50 in series [3] amounted to 70.4 µM. Further, the half-maximal cytotoxic concentration (CC50) at 40 h in series [4] is > 100 µM. Moreover, the selectivity ratio in series [5] is > 1.42.
`CC1(C)CC[C@]2(C(=O)NCc3cn([C@@H]4O[C@H](CO)[C@@H](O)[C@H](O)[C@H]4O)nn3)CC[C@]3(C)C(=CC[C@@H]4[C@@]5(C)CC[C@H](OC(=O)NCCCc6cn(CC(CO)(Cn7cc(CCCNC(=O)O[C@H]8CC[C@]9(C)[C@H]%10CC=C%11[C@@H]%12CC(C)(C)CC[C@]%12(C(=O)NCc%12cn([C@@H]%13O[C@H](CO)[C@@H](O)[C@H](O)[C@H]%13O)nn%12)CC[C@@]%11(C)[C@]%10(C)CC[C@H]9C8(C)C)nn7)Cn7cc(CCCNC(=O)O[C@H]8CC[C@]9(C)[C@H]%10CC=C%11[C@@H]%12CC(C)(C)CC[C@]%12(C(=O)NCc%12cn([C@@H]%13O[C@H](CO)[C@@H](O)[C@H](O)[C@H]%13O)nn%12)CC[C@@]%11(C)[C@]%10(C)CC[C@H]9C8(C)C)nn7)nn6)C(C)(C)[C@@H]5CC[C@]43C)[C@@H]2C1`: in series [1], the Activity entry was “Non-toxic”. Also, in series [2], the inhibition at 100 µM was > 75%. Also, the IC50 in series [3] was determined as 3.93 µM. Moreover, the half-maximal cytotoxic concentration (CC50) at 40 h in series [4] was > 100 µM. Moreover, the selectivity ratio in series [5] is > 25.5.
In the case of `CC1(C)CC[C@]2(C(=O)NCc3cn([C@@H]4O[C@H](CO)[C@@H](O)[C@H](O)[C@H]4O)nn3)CC[C@]3(C)C(=CC[C@@H]4[C@@]5(C)CC[C@H](OC(=O)NCCCc6cn(Cc7cc(Cn8cc(CCCNC(=O)O[C@H]9CC[C@]%10(C)[C@H]%11CC=C%12[C@@H]%13CC(C)(C)CC[C@]%13(C(=O)NCc%13cn([C@@H]%14O[C@H](CO)[C@@H](O)[C@H](O)[C@H]%14O)nn%13)CC[C@@]%12(C)[C@]%11(C)CC[C@H]%10C9(C)C)nn8)cc(Cn8cc(CCCNC(=O)O[C@H]9CC[C@]%10(C)[C@H]%11CC=C%12[C@@H]%13CC(C)(C)CC[C@]%13(C(=O)NCc%13cn([C@@H]%14O[C@H](CO)[C@@H](O)[C@H](O)[C@H]%14O)nn%13)CC[C@@]%12(C)[C@]%11(C)CC[C@H]%10C9(C)C)nn8)c7)nn6)C(C)(C)[C@@H]5CC[C@]43C)[C@@H]2C1`, the Activity result in series [1] is “Non-toxic”. In addition, the inhibition at 100 µM in series [2] was > 75%. The half-inhibitory concentration (IC50) in series [3] came out at 43.9 µM. In series [4], the CC50 at 40 h is > 100 µM. In addition, the selectivity ratio in series [5] is > 2.28.
Regarding `CC(=O)OC[C@H]1O[C@@H](n2cc(CNC(=O)[C@]34CCC(C)(C)C[C@H]3C3=CC[C@@H]5[C@@]6(C)CC[C@H](OC(=O)NCc7cn(Cc8cc(Cn9cc(CNC(=O)O[C@H]%10CC[C@]%11(C)[C@H]%12CC=C%13[C@@H]%14CC(C)(C)CC[C@]%14(C(=O)NCc%14cn([C@@H]%15O[C@H](COC(C)=O)[C@@H](OC(C)=O)[C@H](OC(C)=O)[C@H]%15OC(C)=O)nn%14)CC[C@@]%13(C)[C@]%12(C)CC[C@H]%11C%10(C)C)nn9)cc(Cn9cc(CNC(=O)O[C@H]%10CC[C@]%11(C)[C@H]%12CC=C%13[C@@H]%14CC(C)(C)CC[C@]%14(C(=O)NCc%14cn([C@@H]%15O[C@H](COC(C)=O)[C@@H](OC(C)=O)[C@H](OC(C)=O)[C@H]%15OC(C)=O)nn%14)CC[C@@]%13(C)[C@]%12(C)CC[C@H]%11C%10(C)C)nn9)c8)nn7)C(C)(C)[C@@H]6CC[C@@]5(C)[C@]3(C)CC4)nn2)[C@H](OC(C)=O)[C@@H](OC(C)=O)[C@@H]1OC(C)=O`, the Activity result in series [1] is listed as “Non-toxic”. Also, the inhibition at 100 µM in series [2] is > 75%. For the same molecule, the IC50 in series [3] worked out at 0.68 µM. Further, the CC50 at 40 h in series [4] is > 100 µM. In series [5], the selectivity ratio was > 147.
As to `CC(=O)OC[C@H]1O[C@@H](n2cc(CNC(=O)[C@]34CCC(C)(C)C[C@H]3C3=CC[C@@H]5[C@@]6(C)CC[C@H](OC(=O)NCCc7cn(Cc8cc(Cn9cc(CCNC(=O)O[C@H]%10CC[C@]%11(C)[C@H]%12CC=C%13[C@@H]%14CC(C)(C)CC[C@]%14(C(=O)NCc%14cn([C@@H]%15O[C@H](COC(C)=O)[C@@H](OC(C)=O)[C@H](OC(C)=O)[C@H]%15OC(C)=O)nn%14)CC[C@@]%13(C)[C@]%12(C)CC[C@H]%11C%10(C)C)nn9)cc(Cn9cc(CCNC(=O)O[C@H]%10CC[C@]%11(C)[C@H]%12CC=C%13[C@@H]%14CC(C)(C)CC[C@]%14(C(=O)NCc%14cn([C@@H]%15O[C@H](COC(C)=O)[C@@H](OC(C)=O)[C@H](OC(C)=O)[C@H]%15OC(C)=O)nn%14)CC[C@@]%13(C)[C@]%12(C)CC[C@H]%11C%10(C)C)nn9)c8)nn7)C(C)(C)[C@@H]6CC[C@@]5(C)[C@]3(C)CC4)nn2)[C@H](OC(C)=O)[C@@H](OC(C)=O)[C@@H]1OC(C)=O`, the Activity result in series [1] is listed as “Non-toxic”. For the same molecule, in series [2], the inhibition at 100 µM was > 75%. Also, in series [3], the IC50 came out at 46.8 µM. The half-maximal cytotoxic concentration (CC50) at 40 h in series [4] is > 100 µM. Moreover, in series [5], the selectivity ratio was > 8.55.
The corresponding values for `CC1(C)CC[C@]2(C(=O)NCc3cn([C@@H]4O[C@H](CO)[C@@H](O)[C@H](O)[C@H]4O)nn3)CC[C@]3(C)C(=CC[C@@H]4[C@@]5(C)CC[C@H](OC(=O)NCCCCCc6cn(CC(CO)(Cn7cc(CCCCCNC(=O)O[C@H]8CC[C@]9(C)[C@H]%10CC=C%11[C@@H]%12CC(C)(C)CC[C@]%12(C(=O)NCc%12cn([C@@H]%13O[C@H](CO)[C@@H](O)[C@H](O)[C@H]%13O)nn%12)CC[C@@]%11(C)[C@]%10(C)CC[C@H]9C8(C)C)nn7)Cn7cc(CCCCCNC(=O)O[C@H]8CC[C@]9(C)[C@H]%10CC=C%11[C@@H]%12CC(C)(C)CC[C@]%12(C(=O)NCc%12cn([C@@H]%13O[C@H](CO)[C@@H](O)[C@H](O)[C@H]%13O)nn%12)CC[C@@]%11(C)[C@]%10(C)CC[C@H]9C8(C)C)nn7)nn6)C(C)(C)[C@@H]5CC[C@]43C)[C@@H]2C1` are “Non-toxic”, > 75%, 5.99 µM, > 100 µM and > 16.7.
